Experimental findings from ChEMBL document CHEMBL4725270, “Chloroquine fumardiamides as novel quorum sensing inhibitors” (2020) are described below.

Active and inactive are the calls of the source. No cut-off for these calls is given here.

Test [1] relates to Chromobacterium violaceum. Description: Inhibition of quorum sensing in violacein-negative Chromobacterium violaceum CV026 mini-Tn5 mutant assessed as quorum quenching by measuring violacein production at 400 uM in presence of C6-HSL relative to control. Further details: scale not given: the % may be the effect or the level left.
The test system of test [2] is Chromobacterium violaceum. Briefly: Bactericidal activity against violacein-negative Chromobacterium violaceum CV026 mini-Tn5 mutant at 400 uM by resazurin dye based assay relative to control. The format is functional. For orientation: The colour change of resazurin is a common sign of viable cells or microbes.
Test [3] deals with Chromobacterium violaceum. Briefly: Bactericidal activity against Chromobacterium violaceum ATCC 31532 at 400 uM by resazurin dye based assay relative to control. The test is classed as functional.
Test [4] concerns Chromobacterium violaceum. Briefly: Inhibition of quorum sensing in violacein-negative Chromobacterium violaceum CV026 mini-Tn5 mutant assessed as quorum quenching by measuring violacein production at 40 uM in presence of C6-HSL relative to control. More on the design: scale not given: the % may be the effect or the level left.
Test [5] deals with Chromobacterium violaceum. Description: Inhibition of quorum sensing in Chromobacterium violaceum ATCC 31532 assessed as reduction in violacein production at 40 uM relative to control.
For test [6], the system named is Chromobacterium violaceum. Briefly: Inhibition of quorum sensing system in Chromobacterium violaceum ATCC 31532 assessed as reduction in violacein production at 400 uM relative to control.
The subject of test [7] is Chromobacterium violaceum. Description: Inhibition of quorum sensing in Chromobacterium violaceum ATCC 31532 assessed as reduction in violacein production at 400 uM relative to control.
For test [8], the system named is Chromobacterium violaceum. Briefly: Inhibition of quorum sensing in Chromobacterium violaceum ATCC 31532 assessed as quorum quenching by measuring violacein production at 40 uM in presence of C6-HSL.
The test system of test [9] is Chromobacterium violaceum. Description: Bactericidal activity against Chromobacterium violaceum ATCC 31532 assessed as reduction in cell viability at 400 uM by resazurin dye based assay relative to control.

Consider `NCCNC(=O)/C=C/C(=O)NCCCCNc1ccnc2cc(Cl)ccc12`, for which the Activity was determined as 53.3% in test [1], 10.3% in test [2], 12.1% in [3] and 52.5% in [4]. Moreover, the inhibition (usually the relative decrease from the control value, in per cent) in test [5] was “inactive”. Also, the inhibition in test [6] was determined as 46.3%.
In test [3], `COc1cc(NC(C)CCCNC(=O)/C=C/C(=O)Nc2cccc(Cl)c2)c2ncccc2c1` (stereo unspecified) returned an Activity of 17.9%. Further, the inhibition entry in test [6] is “inactive”.
In turn, `CC(C)(C)OC(=O)N1CCC(NC(=O)/C=C/C(=O)NCCCCNc2ccnc3cc(Cl)ccc23)CC1` had an Activity in test [3] of 8.3%. In addition, the inhibition result in [6] was “inactive”.
The compound `CCN(CC)CCCC(C)Nc1ccnc2cc(Cl)ccc12` (stereo unspecified) [CHLOROQUINE] had an Activity in test [3] of 10.1%. The inhibition in [6] was 13.2%.
Consider `COc1cc(NC(C)CCCNC(=O)/C=C/C(=O)Nc2ccc(F)cc2)c2ncccc2c1` (stereo unspecified), for which, in test [3], the Activity turned out to be 24.2%. In addition, the inhibition entry in test [6] was “inactive”.
For `CC(C)(C)OC(=O)Nc1ccc(NC(=O)/C=C/C(=O)NCCCCNc2ccnc3cc(Cl)ccc23)cc1` the same measures were 43.7% and “inactive”.
On the same counts, the results for `O=C(/C=C/C(=O)Nc1cccc(Cl)c1)NCCCCNc1cc(C(F)(F)F)nc2c(C(F)(F)F)cccc12` are 22.3% and 22.3%.
With `CC[C@H]1OC(=O)[C@H](C)[C@@H](O[C@H]2C[C@@](C)(OC)[C@@H](O)[C@H](C)O2)[C@H](C)[C@@H](O[C@@H]2O[C@H](C)C[C@H](N(C)C)[C@H]2O)[C@](C)(O)C[C@@H](C)CN(C)[C@H](C)[C@@H](O)[C@]1(C)O` [AZITHROMYCIN], the Activity was 86.3% in test [1], 67.2% in test [2], 85.6% in test [3] and 86.3% in test [4]. Besides, the inhibition in test [7] and in test [6] was 90.6% throughout.
As for `O=C(/C=C/C(=O)NC1CCNCC1)NCCCCNc1ccnc2cc(Cl)ccc12`, the Activity in test [1] was 61.6%; in [2], 10.3%; in [3], 6.5%; in test [4], 42.8%. The inhibition in [5] is 5.4%; in [6], 45.9%.
In the case of `O=C(/C=C/C(=O)Nc1cccc(F)c1)NCCCCNc1ccnc2cc(Cl)ccc12`, the outcome in test [1], in test [2] and in [8] was inactive. Besides, the results for the Activity in test [3] and in [9] were 27.8% and 27%, respectively. The inhibition came out at 75% in test [7] and 79.4% in test [6].
Consider `COc1cc(NC(C)CCCNC(=O)/C=C/C(=O)Nc2ccc(C(F)(F)F)cc2)c2ncccc2c1` (stereo unspecified), for which the Activity in test [3] is reported as 31.2%. The inhibition result in [6] was “inactive”.
On to `O=C(/C=C/C(=O)Nc1cccc(F)c1)NCCCCNc1cc(C(F)(F)F)nc2c(C(F)(F)F)cccc12`, for which the result in test [3] was inactive. In test [6], the inhibition came to 16.9%.
With `O=C(/C=C/C(=O)Nc1ccc(Cl)cc1)NCCCCNc1ccnc2cc(Cl)ccc12`, the outcome in test [1], in [2] and in test [8] was inactive. The Activity is reported as 56.9% in [3] and 27% in [9]. Besides, the inhibition in test [6] is 85%.
With `O=C(/C=C/C(=O)Nc1ccc(Cl)cc1)NCCCCNc1cc(C(F)(F)F)nc2c(C(F)(F)F)cccc12`, in [3], the result was inactive. In addition, the inhibition in [6] came out at 29.9%.
For the compound `COc1cc(NC(C)CCCNC(=O)/C=C/C(=O)Nc2ccc(Cl)cc2)c2ncccc2c1` (stereo unspecified), the outcome in [3] was inactive. In addition, the inhibition result in [6] is “inactive”.
On to `COc1cc(NC(C)CCCNC(=O)/C=C/C(=O)Nc2cccc(F)c2)c2ncccc2c1` (stereo unspecified), for which the result in test [3] was inactive. Moreover, the inhibition entry in [6] was “inactive”.
On to `O=C(/C=C/C(=O)Nc1ccc(C(F)(F)F)cc1)NCCCCNc1cc(C(F)(F)F)nc2c(C(F)(F)F)cccc12`, for which the result in test [3] was inactive. Further, in test [6], the inhibition entry is “inactive”.
Regarding `O=C(/C=C/C(=O)Nc1cccc(C(F)(F)F)c1)NCCCCNc1ccnc2cc(Cl)ccc12`, the outcome in [3] was inactive. Moreover, the inhibition result in test [6] was “inactive”.
Compound `Nc1ccc(NC(=O)/C=C/C(=O)NCCCCNc2ccnc3cc(Cl)ccc23)cc1` came in with an Activity in test [3] of 17.5%. The inhibition in [6] was 4.7%.
On the same counts, the results for `O=C(/C=C/C(=O)Nc1ccc(F)cc1)NCCCCNc1cc(C(F)(F)F)nc2c(C(F)(F)F)cccc12` are “inactive” and 29.1%.
For the compound `O=c1c(O)c(-c2ccc(O)c(O)c2)oc2cc(O)cc(O)c12` [QUERCETIN], the Activity in [1] was found to be 66.8%; in [2] it was 17.1%; in [3], 14.7%. The inhibition in [6] came out at 55.8%.
Turning to `CC(C)(C)OC(=O)NC1CCN(C(=O)/C=C/C(=O)NCCCCNc2ccnc3cc(Cl)ccc23)CC1`, the Activity in [3] is listed as 44.6%. In addition, the inhibition in test [6] is 9.1%.
Take `NC1CCN(C(=O)/C=C/C(=O)NCCCCNc2ccnc3cc(Cl)ccc23)CC1`: the Activity in test [1] amounted to 62.6%; in [2], 13.4%; in [3], 16.2%; in test [4], 39.9%. Besides, the inhibition in test [5] worked out at 7%; in test [6] it was 47.2%.
As to `COc1cc(NC(C)CCCNC(=O)/C=C/C(=O)Nc2cccc(C(F)(F)F)c2)c2ncccc2c1` (stereo unspecified), in test [8], the result was inactive. In addition, the Activity in test [3] is 16.4%. Further, the inhibition result in test [6] was “inactive”.
Turning to `O=C(/C=C/C(=O)Nc1cccc(Cl)c1)NCCCCNc1ccnc2cc(Cl)ccc12`, the result in test [1] and in test [2] was inactive. Further, the values for the Activity in [3] and in test [9] were 45.8% and 27%, respectively. The inhibition in [7] is 75%; in [6], 75.3%.
On to `O=C(/C=C/C(=O)Nc1ccc(F)cc1)NCCCCNc1ccnc2cc(Cl)ccc12`, for which the outcome in test [1], in test [2] and in [8] was inactive. This compound returned an Activity in test [3] of 39.7%. The inhibition in test [7] was found to be 75%; in test [6], 87.9%.
As to `COc1cc(NC(C)CCCN)c2ncccc2c1` (stereo unspecified), the result in test [1], in test [2] and in test [3] was inactive. In test [6], the inhibition result was “inactive”.
As to `CC(C)(C)OC(=O)NCCNC(=O)/C=C/C(=O)NCCCCNc1ccnc2cc(Cl)ccc12`, the Activity in [3] amounted to 10.7%. Moreover, in [6], the inhibition is 23%.
In the case of `O=C(/C=C/C(=O)Nc1ccc(C(F)(F)F)cc1)NCCCCNc1ccnc2cc(Cl)ccc12`, the outcome in test [1], in test [2] and in [8] was inactive. The same compound had an Activity in test [3] of 27.7%. In test [6], the inhibition amounted to 85.7%.
`O=C(/C=C/C(=O)Nc1cccc(C(F)(F)F)c1)NCCCCNc1cc(C(F)(F)F)nc2c(C(F)(F)F)cccc12` came in with an Activity in test [3] of 13.8%. In [6], the inhibition turned out to be 22.3%.
